Values after ≈ are worked out from the molar mass of the structure shown. Values joined by “and” are separate entries in the source; they are usually repeats but may differ in a detail not shown here. Equal entries are not always repeated. Active and inactive are the calls of the source. The rule behind the calls is not given here.
Assays:
[1] = Selectivity ratio of CC50 for cytotoxicity against human PC-3 cells to CC50 for cytotoxicity against human 22Rv1 cells
CWR22R [2] = assay: Cytotoxicity against human 22Rv1 cells assessed as reduction in cell viability measured after 72 hrs by MTT assay; type: functional
PC-3 [3] = assay: Cytotoxicity against human PC-3 cells assessed as reduction in cell viability measured after 72 hrs by MTT assay; type: functional
[4] = Chronic toxicity in rat assessed as change in volume of excreted urine administered intravenously as pluronic F127 formulation at 4 intervals for 21 days and observed 3 weeks post last injection relative to control; conditions: in vivo, iv, 2544 h, time 106 day
[5] = Toxicity in BALB/c nude mouse xenografted with human DU-145 cells assessed as animal death at 12.4 to 24.8 mg/kg, ip measured on day 8; type: organism-based; conditions: in vivo, dose 12.4-24.8 mg/kg, time 8 day, read-out: Activity
[6] = Chronic toxicity in rat assessed as change in erythrocytes in blood administered intravenously as pluronic F127 formulation at 4 intervals for 21 days and observed 3 weeks post last injection relative to control; type: cell-based; conditions: iv, 2544 h, time 106 day
[7] = Chronic toxicity in rat assessed as reduction in getting up frequency at 15.16 mg/kg, iv administered as pluronic F127 formulation at 4 intervals for 21 days and observed 3 weeks post last injection; type: organism-based; conditions: in vivo, 2544 h, time 106 day
CWR22R [8] = assay: Effect on cell stiffness in human 22Rv1 cells assessed as increase in young's modulus at 1 nM measured after 1 hr by topography based scanning ion-conductance microscopic analysis; type: functional
[9] = Chronic toxicity in Soviet Chinchilla rabbit assessed as animal death administered intravenously as pluronic F127 formulation at 4 intervals for 21 days and observed one week post first injection; parameters: species or system Oryctolagus cuniculus; conditions: in vivo, iv, 168 h, time 7 day
[10] = Chronic toxicity in rat assessed as increase in relative lung mass administered intravenously as pluronic F127 formulation for 4 intervals of 21 days and observed 3 weeks post last injection relative to control; conditions: in vivo, iv, 2544 h, time 106 day
[11] = Chronic toxicity in rat assessed as increase in relative mass of liver administered intravenously as pluronic F127 formulation at 4 intervals for 21 days and observed 3 weeks post last injection relative to control; type: tissue-based; conditions: in vivo, iv, 2544 h, time 106 day
[12] = Chronic toxicity in rat assessed as increase in relative spleen mass administered intravenously as pluronic F127 formulation at 4 intervals for 21 days and observed 3 weeks post last injection relative to control; type: tissue-based; conditions: in vivo, iv, 2544 h, time 106 day
[13] = Chronic toxicity in rat assessed as change in alkaline phosphatase level at […], iv administered as pluronic F127 formulation at 4 intervals for 21 days and observed 3 weeks post last injection relative to control; type: organism-based; conditions: in vivo, 2544 h, time 106 day
[14] = Chronic toxicity in rat assessed as reduction in grooming frequency at 15.16 mg/kg, iv administered as pluronic F127 formulation at 4 intervals for 21 days and observed 3 weeks post last injection; type: organism-based; conditions: in vivo, 2544 h, time 106 day
DU-145 [15] = assay: Antitumor activity against human DU-145 cells xenografted in BALB/c nude mouse assessed as tumor growth inhibition at 24.8 mg/kg, ip measured upto 30 days; type: functional; conditions: DU-145, 720 h, time <= 30 day, read-out: TGI
DU-145 [16] = assay: Antitumor activity against human DU-145 cells xenografted in BALB/c nude mouse assessed as tumor growth inhibition at 12.4 mg/kg, ip measured upto 30 days; type: functional; conditions: DU-145, 720 h, time <= 30 day, read-out: TGI
[17] = Acute toxicity in iv dosed ICR mouse assessed as lethal dose; type: organism-based; conditions: in vivo
[18] = Chronic toxicity in rat assessed as increase in relative mass of pancreas administered intravenously as pluronic F127 formulation at 4 intervals for 21 days and observed 3 weeks post last injection relative to control; type: tissue-based; conditions: in vivo, iv, 2544 h, time 106 day
[19] = Aqueous solubility of compound; type: physicochemical
DU-145 [20] = assay: Antitumor activity against human DU-145 cells xenografted in BALB/c nude mouse assessed as reduction in tumor growth index at 12.4 mg/kg, ip measured upto 30 days (reference value: 799 +/- 121.8 %); type: functional; parameters: scale not given: the % may be the effect or the level left; conditions: time <= 30 day
CWR22R [21] = assay: Antitumor activity against human 22Rv1 cells xenografted in Balb/c nude mouse assessed as tumor growth inhibition at 10 mg/kg, ip administered daily for 5 days and measured at day 34 relative to control; type: functional; parameters: scale not given: the % may be the effect or the level left; conditions: time 34 day
[22] = Chronic toxicity in rat assessed as increase in relative mass of stomach administered intravenously as pluronic F127 formulation at 4 intervals for 21 days and observed 3 weeks post last injection relative to control; type: tissue-based; conditions: in vivo, iv, 2544 h, time 106 day
[23] = Chronic toxicity in rat assessed as decrease in relative mass of testes administered intravenously as pluronic F127 formulation at 4 intervals for 21 days and observed 3 weeks post last injection relative to control; conditions: in vivo, iv, 2544 h, time 106 day
PC-3 [24] = assay: Induction of ROS generation in human PC-3 cells at 800 mV holding potential measured after 1 hr by patch clamp amplifier based optical inverted microscopic analysis; type: functional, cell-based
DU-145 [25] = assay: Antitumor activity against human DU-145 cells xenografted in BALB/c nude mouse assessed as reduction in tumor growth index at 24.8 mg/kg, ip measured upto 30 days (reference value: 799 +/- 121.8 %); type: functional; parameters: scale not given: the % may be the effect or the level left; conditions: time <= 30 day
PC-3 [26] = assay: Effect on cell stiffness in human PC-3 cells assessed as increase in young's modulus at 1 nM measured after 1 hr by topography based scanning ion-conductance microscopic analysis; type: functional
[27] = Chronic toxicity in rat assessed as increase in relative brain mass administered intravenously as pluronic F127 formulation at 4 intervals for 21 days and observed 3 weeks post last injection relative to control; type: tissue-based; conditions: in vivo, iv, 2544 h, time 106 day
[28] = Chronic toxicity in rat assessed as increase in relative kidney weight administered intravenously as pluronic F127 formulation at 4 intervals for 21 days and observed 3 weeks post last injection; type: tissue-based; conditions: in vivo, iv, 2544 h, time 106 day
[29] = Chronic toxicity in rat assessed as increase in relative mass of adrenal gland administered intravenously as pluronic F127 formulation at 4 intervals for 21 days and observed 3 weeks post last injection relative to control; type: tissue-based; conditions: in vivo, iv, 2544 h, time 106 day
[30] = Chronic toxicity in rat assessed as increase in creatinine concentration at […], iv administered as pluronic F127 formulation at 4 intervals for 21 days and observed 3 weeks post last injection relative to control; type: organism-based; conditions: in vivo, 2544 h, time 106 day
[31] = Chronic toxicity in rat assessed as change in relative heart mass administered intravenously as pluronic F127 formulation at 4 intervals for 21 days and observed 3 weeks post last injection; type: tissue-based; conditions: in vivo, iv, 2544 h, time 106 day
[32] = Chronic toxicity in rat assessed as neurological disorder administered intravenously as pluronic F127 formulation at 4 intervals for 21 days and observed 3 weeks post last injection; conditions: in vivo, iv, 2544 h, time 106 day
[33] = Chronic toxicity in rat assessed as hair loss administered intravenously as pluronic F127 formulation at 4 intervals for 21 days and observed 3 weeks post last injection; conditions: in vivo, iv, 2544 h, time 106 day
[34] = Toxicity in Balb/c nude mouse xenografted with human 22Rv1 cells assessed as animal death at 10 mg/kg, ip measured upto 30 days; type: organism-based, CWR22R; conditions: in vivo, 720 h, time < 30 day
[35] = molecular target: Glutamate carboxypeptidase 2 (Homo sapiens, UniProt Q04609); assay: Inhibition of GCPII (unknown origin)
Glutamate carboxypeptidase 2, sequence (Q04609 whole entry): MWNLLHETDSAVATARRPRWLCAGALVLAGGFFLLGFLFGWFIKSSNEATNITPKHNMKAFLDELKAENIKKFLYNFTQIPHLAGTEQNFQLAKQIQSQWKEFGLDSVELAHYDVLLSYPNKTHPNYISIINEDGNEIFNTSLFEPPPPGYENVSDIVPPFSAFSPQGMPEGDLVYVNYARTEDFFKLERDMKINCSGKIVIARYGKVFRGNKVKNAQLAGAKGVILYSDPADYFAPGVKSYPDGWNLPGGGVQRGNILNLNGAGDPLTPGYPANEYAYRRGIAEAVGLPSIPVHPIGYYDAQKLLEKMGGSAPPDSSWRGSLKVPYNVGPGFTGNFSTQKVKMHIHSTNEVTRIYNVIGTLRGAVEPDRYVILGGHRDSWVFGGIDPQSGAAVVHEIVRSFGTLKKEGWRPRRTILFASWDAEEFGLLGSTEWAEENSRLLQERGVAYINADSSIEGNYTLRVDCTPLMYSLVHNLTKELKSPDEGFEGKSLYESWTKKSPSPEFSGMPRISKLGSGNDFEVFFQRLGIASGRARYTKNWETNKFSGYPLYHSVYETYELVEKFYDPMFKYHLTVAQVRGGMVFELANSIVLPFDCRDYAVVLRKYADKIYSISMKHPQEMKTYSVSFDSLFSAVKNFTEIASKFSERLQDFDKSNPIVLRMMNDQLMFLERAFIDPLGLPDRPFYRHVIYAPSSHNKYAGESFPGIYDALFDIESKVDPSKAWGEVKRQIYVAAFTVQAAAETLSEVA

In the case of `CC(=O)O[C@@]12CO[C@@H]1C[C@H](O)[C@@]1(C)C(=O)[C@H](O)C3=C(C)[C@@H](OC(=O)[C@H](OC(=O)CCCc4cn(CCCNC(=O)[C@@H](Cc5ccccc5)NC(=O)[C@@H](Cc5ccccc5)NC(=O)CCC(=O)NCCCCCC(=O)N(CCCC[C@H](NC(=O)N[C@@H](CCC(=O)O)C(=O)O)C(=O)O)Cc5ccc(Cl)c(F)c5)nn4)[C@@H](NC(=O)OC(C)(C)C)c4ccccc4)C[C@@](O)([C@@H](OC(=O)c4ccccc4)[C@H]21)C3(C)C`, the Selectivity ratio [1] is reported as 1.8, the CC50 (CWR22R [2]) is reported as 0.029 µM and the CC50 (PC-3 [3]) is reported as 0.052 µM.
Molecule `CC(=O)O[C@@]12CO[C@@H]1C[C@H](O)[C@@]1(C)C(=O)[C@H](O)C3=C(C)[C@@H](OC(=O)[C@H](OC(=O)CCCc4cn(CCCNC(=O)[C@H](Cc5ccccc5)NC(=O)[C@H](Cc5ccccc5)NC(=O)CCC(=O)NCCCCCC(=O)N(CCCC[C@H](NC(=O)N[C@@H](CCC(=O)O)C(=O)O)C(=O)O)Cc5ccccc5)nn4)[C@@H](NC(=O)OC(C)(C)C)c4ccccc4)C[C@@](O)([C@@H](OC(=O)c4ccccc4)[C@H]21)C3(C)C` (single isomer, unassigned) has a Selectivity ratio [1] of 1.5, a CC50 (CWR22R [2]) of 0.013 µM and a CC50 (PC-3 [3]) of 0.02 µM.
In the case of `CC(=O)O[C@@]12CO[C@@H]1C[C@H](O)[C@@]1(C)C(=O)[C@H](O)C3=C(C)[C@@H](OC(=O)[C@H](O)[C@@H](NC(=O)OC(C)(C)C)c4ccccc4)C[C@@](O)([C@@H](OC(=O)c4ccccc4)[C@H]21)C3(C)C` [DOCETAXEL ANHYDROUS], the Activity [4] is reported as “Toxic”, the mortality at 192 h [5] is reported as 100% and the Activity [6] is reported as “Non-Toxic”. The Activity [7] was “Toxic”, the Activity (CWR22R [8]) was “Active” and the Selectivity ratio [1] was 1. The Activity [9] was “Toxic”, the CC50 (CWR22R [2]) was 0.001 µM and the Activity [10] was “Toxic”. The Activity [11] was “Toxic”, the Activity [12] was “Non-Toxic” and the Activity [13] was “Toxic”. For the same molecule, the Activity [14] was “Toxic”, the inhibition in vivo at 24.8 mg/kg (DU-145 [15]) was 73.5% and the inhibition in vivo at 12.4 mg/kg (DU-145 [16]) was 47.1%. The LD50 [17] was 138 mg/kg and 171 µmol/kg, the Activity [18] was “Toxic” and the solubility [19] was 3 µg/mL (≈ 3.71 µM). For the same molecule, the Activity (DU-145 [20]) was 261.3%, the CC50 (PC-3 [3]) was 0.001 µM and the Activity (CWR22R [21]) was 88%. For the same molecule, the Activity [22] was “Toxic”, the Activity [23] was “Non-Toxic” and the Activity (PC-3 [24]) was “Active”. The Activity (DU-145 [25]) was 84.8%, the Activity (PC-3 [26]) was “Active” and the Activity [27] was “Toxic”. The Activity [28] was “Toxic”, the Activity [29] was “Toxic” and the Activity [30] was “Toxic”. For the same molecule, the Activity [31] was “Non-Toxic”, the Activity [32] was “Toxic” and the Activity [33] was “Toxic”. The Activity [34] was “Toxic”.
For `[N-]=[N+]=NCCCNC(=O)[C@H](Cc1ccc(O)cc1)NC(=O)[C@H](Cc1ccccc1)NC(=O)CCC(=O)NCCCCCC(=O)N(CCCC[C@H](NC(=O)N[C@@H](CCC(=O)O)C(=O)O)C(=O)O)Cc1cccc(Cl)c1`, the IC50 [35] was 0.009 µM.

From ChEMBL document CHEMBL5131389, “PSMA-targeted small-molecule docetaxel conjugate: Synthesis and preclinical evaluation” (Eur J Med Chem, 2022)
